ChEMBL document CHEMBL1201862, “PubChem BioAssay data set” (2004)
Active and inactive are the calls of the source.

Assays:
[1] = biological target: Luciferin 4-monooxygenase (Photinus pyralis, UniProt P08659); assay: firefly luciferase enzyme inhibitors, dose response, biochemical, luminescence (AID 1891)
[2] = Luminescence Cell-Based Dose Confirmation HTS to Identify Inhibitors of Platelet Dense Granule Release. [Related pubchem assays: 1663 (Primary HTS), 1678 (Summary of Project)]; format: functional
[3] = biological target: T1, Ubiquitin-conjugating enzyme E2 N (Homo sapiens, UniProt P61088); format: functional;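 further: Dose-response confirmation in a TR-FRET assay detecting UBC13-driven polyubiquitin chain formation, inhibition measured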
T1 sequence (P61088 whole entry): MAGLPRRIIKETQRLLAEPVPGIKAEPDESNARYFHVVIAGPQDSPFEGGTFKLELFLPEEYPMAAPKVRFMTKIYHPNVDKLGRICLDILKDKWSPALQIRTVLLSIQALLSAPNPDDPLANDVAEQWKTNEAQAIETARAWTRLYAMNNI

Cytochrome P450 2D6 = Cytochrome P450 2D6 (Homo sapiens, UniProt P10635);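 further: CYP2D6 member of a cytochrome P450 panel assay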
Cytochrome P450 2D6, sequence (P10635 whole entry): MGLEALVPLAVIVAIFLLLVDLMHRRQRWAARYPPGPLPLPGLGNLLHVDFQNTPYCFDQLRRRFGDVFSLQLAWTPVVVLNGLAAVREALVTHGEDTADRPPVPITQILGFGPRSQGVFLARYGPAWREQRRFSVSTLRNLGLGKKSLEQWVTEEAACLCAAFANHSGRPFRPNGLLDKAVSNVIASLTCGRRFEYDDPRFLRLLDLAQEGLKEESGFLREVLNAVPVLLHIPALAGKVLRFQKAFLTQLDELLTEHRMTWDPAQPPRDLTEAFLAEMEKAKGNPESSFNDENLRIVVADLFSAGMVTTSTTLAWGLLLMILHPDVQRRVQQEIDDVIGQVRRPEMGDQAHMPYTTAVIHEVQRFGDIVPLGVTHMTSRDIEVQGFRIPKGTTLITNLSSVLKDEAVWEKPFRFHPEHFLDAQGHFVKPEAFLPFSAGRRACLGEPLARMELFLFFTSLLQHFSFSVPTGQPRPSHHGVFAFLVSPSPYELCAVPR

Cytochrome P450 2C9 = Cytochrome P450 2C9 (Homo sapiens, UniProt P11712)
Cytochrome P450 2C9, sequence (P11712 whole entry): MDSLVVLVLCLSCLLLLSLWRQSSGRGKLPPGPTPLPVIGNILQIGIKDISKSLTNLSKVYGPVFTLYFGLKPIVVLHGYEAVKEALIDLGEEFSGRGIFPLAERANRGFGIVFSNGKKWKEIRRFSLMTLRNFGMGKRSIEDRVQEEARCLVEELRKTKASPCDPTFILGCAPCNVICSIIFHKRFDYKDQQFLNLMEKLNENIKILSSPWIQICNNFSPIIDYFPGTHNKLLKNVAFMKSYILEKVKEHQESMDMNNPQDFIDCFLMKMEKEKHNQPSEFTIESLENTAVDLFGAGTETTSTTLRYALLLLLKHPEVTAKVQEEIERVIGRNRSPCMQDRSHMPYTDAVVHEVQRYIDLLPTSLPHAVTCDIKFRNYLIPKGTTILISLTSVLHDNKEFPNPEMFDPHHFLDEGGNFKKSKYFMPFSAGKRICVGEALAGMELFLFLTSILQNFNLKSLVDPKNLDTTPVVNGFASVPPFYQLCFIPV

Cytochrome P450 2C19 = Cytochrome P450 2C19 (Homo sapiens, UniProt P33261); assay: Cytochrome panel assay with activity outcomes. Panel member name: p450-cyp2c19 Compounds with AC50 equal or less than 10 uM are considered active; format: functional; conditions: read-out: AC50
Cytochrome P450 2C19, sequence (P33261 whole entry): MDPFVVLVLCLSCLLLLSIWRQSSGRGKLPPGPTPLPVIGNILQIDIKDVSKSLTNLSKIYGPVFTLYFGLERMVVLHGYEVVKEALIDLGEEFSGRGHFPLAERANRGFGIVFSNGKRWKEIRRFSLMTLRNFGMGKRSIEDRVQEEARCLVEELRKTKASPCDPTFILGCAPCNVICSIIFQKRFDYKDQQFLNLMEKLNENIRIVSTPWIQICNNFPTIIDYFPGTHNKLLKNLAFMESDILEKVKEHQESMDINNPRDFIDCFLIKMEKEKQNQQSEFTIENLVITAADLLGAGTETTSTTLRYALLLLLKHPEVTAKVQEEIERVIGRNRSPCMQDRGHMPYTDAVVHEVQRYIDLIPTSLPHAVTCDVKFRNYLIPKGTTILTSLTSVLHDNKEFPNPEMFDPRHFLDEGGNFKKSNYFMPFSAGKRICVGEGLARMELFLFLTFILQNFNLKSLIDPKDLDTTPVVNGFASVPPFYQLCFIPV

[4] = biological target: T2, Heat shock factor protein 1 (Mus musculus, UniProt P38532); assay: HSF1 potentiators in luciferase reporter cells, confirmation, cell-based, NIH3T3, luminescence, dose retest (AID 435004); format: functional;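 further: stress induced by proteasome inhibitor MG132 added 30 min after compound; luciferase reporter driven by HSF1 response element in NIH3T3 cells; actives raise luminescence as potentiators of the MG132 stress response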
T2 sequence (P38532 whole entry): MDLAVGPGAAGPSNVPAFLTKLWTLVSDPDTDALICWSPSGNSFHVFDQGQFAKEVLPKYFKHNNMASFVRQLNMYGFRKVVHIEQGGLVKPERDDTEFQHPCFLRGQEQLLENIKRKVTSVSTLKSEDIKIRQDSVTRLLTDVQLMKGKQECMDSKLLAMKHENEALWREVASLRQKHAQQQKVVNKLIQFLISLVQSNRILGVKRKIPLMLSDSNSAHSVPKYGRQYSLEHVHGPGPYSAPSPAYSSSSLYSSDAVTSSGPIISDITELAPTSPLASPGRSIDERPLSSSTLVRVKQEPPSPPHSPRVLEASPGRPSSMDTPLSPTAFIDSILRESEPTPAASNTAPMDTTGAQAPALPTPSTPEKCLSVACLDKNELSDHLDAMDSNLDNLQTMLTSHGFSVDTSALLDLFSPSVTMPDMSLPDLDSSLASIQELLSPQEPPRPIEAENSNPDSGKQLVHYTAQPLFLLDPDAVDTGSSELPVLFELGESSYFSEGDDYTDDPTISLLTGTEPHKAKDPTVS

[5] = biological target: T3, Replicative DNA helicase DnaB (Mycobacterium tuberculosis, UniProt P9WMR3); assay: DnaB intein splicing inhibitors, dose response, biochemical, cell-free fluorescence (AID 449749); format: functional
T3 sequence (P9WMR3 whole entry): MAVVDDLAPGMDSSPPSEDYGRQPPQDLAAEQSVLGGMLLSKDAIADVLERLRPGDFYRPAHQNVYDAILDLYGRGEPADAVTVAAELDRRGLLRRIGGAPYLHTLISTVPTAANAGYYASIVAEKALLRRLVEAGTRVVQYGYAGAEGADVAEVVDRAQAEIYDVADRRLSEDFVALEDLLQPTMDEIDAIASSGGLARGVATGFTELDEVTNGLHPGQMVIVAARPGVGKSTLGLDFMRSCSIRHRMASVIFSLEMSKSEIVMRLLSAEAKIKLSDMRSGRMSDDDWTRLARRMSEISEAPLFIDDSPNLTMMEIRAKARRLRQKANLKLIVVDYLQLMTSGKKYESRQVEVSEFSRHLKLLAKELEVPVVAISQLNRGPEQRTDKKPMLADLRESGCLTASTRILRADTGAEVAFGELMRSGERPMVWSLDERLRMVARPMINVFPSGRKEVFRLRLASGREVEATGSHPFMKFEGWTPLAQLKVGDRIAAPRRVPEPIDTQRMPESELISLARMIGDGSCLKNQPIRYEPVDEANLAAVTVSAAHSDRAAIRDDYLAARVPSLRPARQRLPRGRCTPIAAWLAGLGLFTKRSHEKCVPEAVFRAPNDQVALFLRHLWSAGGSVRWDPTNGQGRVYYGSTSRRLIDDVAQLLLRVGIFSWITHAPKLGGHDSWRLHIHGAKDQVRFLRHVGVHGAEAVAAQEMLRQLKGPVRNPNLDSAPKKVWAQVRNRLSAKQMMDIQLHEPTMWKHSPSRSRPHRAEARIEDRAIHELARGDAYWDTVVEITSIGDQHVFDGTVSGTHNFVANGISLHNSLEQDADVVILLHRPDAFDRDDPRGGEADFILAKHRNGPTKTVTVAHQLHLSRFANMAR

Protein RecA = biological target: T4, Protein RecA (Mycobacterium tuberculosis, UniProt P9WHJ3); assay: Fluorescence Cell-Free Homogeneous Dose Retest to Identify Inhibitors of RecA-Intein Splicing Activity. [Related pubchem assays (depositor defined):AID2097, AID2223, AID489010, AID492950]; format: functional
T4 sequence (P9WHJ3 whole entry): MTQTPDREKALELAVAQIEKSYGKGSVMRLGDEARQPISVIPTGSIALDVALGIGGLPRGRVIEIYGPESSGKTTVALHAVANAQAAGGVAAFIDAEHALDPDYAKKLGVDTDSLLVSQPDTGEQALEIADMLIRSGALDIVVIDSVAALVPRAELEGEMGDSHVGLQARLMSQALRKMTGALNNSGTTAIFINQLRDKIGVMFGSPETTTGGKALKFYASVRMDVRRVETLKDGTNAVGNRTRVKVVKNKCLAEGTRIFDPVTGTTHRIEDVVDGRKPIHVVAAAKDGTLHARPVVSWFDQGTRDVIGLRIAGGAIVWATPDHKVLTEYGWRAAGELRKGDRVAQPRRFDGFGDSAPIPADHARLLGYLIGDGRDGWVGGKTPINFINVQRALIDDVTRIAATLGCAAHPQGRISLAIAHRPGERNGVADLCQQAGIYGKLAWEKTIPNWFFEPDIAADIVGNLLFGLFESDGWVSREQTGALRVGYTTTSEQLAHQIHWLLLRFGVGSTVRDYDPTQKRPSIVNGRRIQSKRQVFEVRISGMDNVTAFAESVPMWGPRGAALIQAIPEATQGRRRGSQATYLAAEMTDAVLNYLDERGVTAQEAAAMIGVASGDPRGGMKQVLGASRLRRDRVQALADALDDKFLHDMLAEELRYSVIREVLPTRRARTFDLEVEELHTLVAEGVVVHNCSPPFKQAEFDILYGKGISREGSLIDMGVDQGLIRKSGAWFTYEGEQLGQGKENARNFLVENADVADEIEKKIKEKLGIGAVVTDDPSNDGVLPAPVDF

cells = format: functional
Cytochrome P450 3A4 = Cytochrome P450 3A4 (Homo sapiens, UniProt P08684);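 further: CYP3A4 tested as one member of a cytochrome P450 panel screen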
Cytochrome P450 3A4, sequence (P08684 whole entry): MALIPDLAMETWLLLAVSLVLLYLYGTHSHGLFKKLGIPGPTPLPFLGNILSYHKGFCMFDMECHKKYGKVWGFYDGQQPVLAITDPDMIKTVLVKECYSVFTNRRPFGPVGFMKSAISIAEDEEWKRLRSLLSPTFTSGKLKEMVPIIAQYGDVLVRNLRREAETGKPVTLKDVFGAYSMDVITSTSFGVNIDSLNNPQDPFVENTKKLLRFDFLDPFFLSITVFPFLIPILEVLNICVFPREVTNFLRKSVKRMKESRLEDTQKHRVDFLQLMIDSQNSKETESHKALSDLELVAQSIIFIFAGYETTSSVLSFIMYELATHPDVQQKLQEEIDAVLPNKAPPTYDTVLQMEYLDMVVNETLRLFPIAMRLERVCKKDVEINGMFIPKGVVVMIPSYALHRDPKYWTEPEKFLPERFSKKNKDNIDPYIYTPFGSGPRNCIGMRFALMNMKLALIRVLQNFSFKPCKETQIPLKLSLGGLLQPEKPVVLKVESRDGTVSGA

Luciferin 4-monooxygenase, sequence (P08659 whole entry): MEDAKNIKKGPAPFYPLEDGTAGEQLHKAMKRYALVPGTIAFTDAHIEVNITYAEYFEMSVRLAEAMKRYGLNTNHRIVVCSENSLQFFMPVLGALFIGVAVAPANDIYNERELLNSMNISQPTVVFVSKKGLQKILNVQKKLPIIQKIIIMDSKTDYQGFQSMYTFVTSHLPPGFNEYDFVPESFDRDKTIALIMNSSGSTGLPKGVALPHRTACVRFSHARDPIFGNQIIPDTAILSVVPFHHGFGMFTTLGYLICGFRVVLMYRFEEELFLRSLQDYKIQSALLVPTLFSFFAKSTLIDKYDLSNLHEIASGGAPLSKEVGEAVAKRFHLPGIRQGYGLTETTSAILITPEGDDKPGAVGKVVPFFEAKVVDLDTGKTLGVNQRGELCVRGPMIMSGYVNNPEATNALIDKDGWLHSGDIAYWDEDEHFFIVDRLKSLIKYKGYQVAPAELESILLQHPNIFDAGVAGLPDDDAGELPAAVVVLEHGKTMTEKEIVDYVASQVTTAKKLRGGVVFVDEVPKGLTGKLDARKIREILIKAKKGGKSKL

CCCc1cc(=O)oc2c(C)c(OCC(=O)Nc3ccc(CN4CCOCC4)cc3)ccc12
EC50 [1]: > 112 µM (not active) | EC50 [2]: > 112 µM (not active)

CCCC[C@@H]1CN=C(N)N1CCc1cc(C(F)(F)F)cc(C(F)(F)F)c1
IC50 [3]: > 20 µM (inactive)

COc1cc(O)ccc1C=O
EC50 [1]: > 112 µM (not active) | EC50 [2]: > 112 µM (not active)

COc1ccc(Oc2ncc3nc(C)c(=O)n(-c4ccccc4)c3n2)cc1
AC50 (Cytochrome P450 2D6): 39.8 µM (inconclusive) | AC50 (Cytochrome P450 2C9): 10 µM (inconclusive) | AC50 (Cytochrome P450 2C19): 39.8 µM (inconclusive)

O=C(c1cccnc1S)N1CCN(S(=O)(=O)c2ccc(Br)cc2Cl)CC1
EC50 [4]: > 260 µM (inactive)

COc1cccc(C2CC(C(F)(F)F)n3ncc(C(=O)O)c3N2)c1 (stereo not given)
EC50 [1]: > 112 µM (not active) | EC50 [2]: > 112 µM (not active)

CCOC(=O)c1ccc(NC(=O)CCc2ccc(C)o2)cc1
EC50 [1]: > 112 µM (not active) | EC50 [2]: > 112 µM (not active)

COc1ccc(NC(=O)C2CCCN(c3nn4c(=O)cc(C)nc4s3)C2)c(OC)c1 (stereo not given)
EC50 [1]: > 112 µM (not active) | EC50 [2]: > 112 µM (not active)

C[C@@H]1CC[C@H]2C(=O)O[C@H](CN=[N+]=[N-])CN2[C@@H]1c1ccc(Br)cc1
AC50 (Cytochrome P450 2D6): 7.94 µM (inconclusive) | AC50 (Cytochrome P450 2C9): 3.16 µM (inconclusive)

COC(=O)C1=C(C)N(Cc2ccccc2)C(NCc2cc(OC)c(OC)c(OC)c2)=N[C@H]1CCc1ccccc1
IC50 [3]: > 20 µM (inactive)

COc1ccc(N2CCN(c3nc4c(c(=O)n(C)c(=O)n4C)n3Cc3ccccc3)CC2)cc1
EC50 [1]: 18 µM (active) | EC50 [2]: > 112 µM (not active)

CCN(CC)S(=O)(=O)c1ccc(N2CCN(S(=O)(=O)c3ccccc3C#N)CC2)nc1
AC50 [5]: > 380 µM (inactive) | EC50 (Protein RecA): > 380 µM (inactive)

CC(=O)NC(c1cc(Cl)c2ccccc2c1O)C(C)C (stereo not given)
IC50 [3]: > 20 µM (inactive)

CCN1C(=O)c2cccc3c(S(=O)(=O)Nc4ncccc4C)ccc1c23
EC50 [4]: > 260 µM (inactive)

COc1cc(CNCC(O)c2ccccc2)ccc1OCc1ccc(Cl)nc1 (stereo not given)
EC50 [4]: > 260 µM (inactive)

Cc1c(NC(=O)CSC(=S)N2CCCC2)c(=O)n(-c2ccccc2)n1C
EC50 [1]: > 112 µM (not active) | EC50 [2]: 25.5 µM (active)

COC(=O)c1ccccc1NC(=S)NC(=O)c1ccc(C)cc1
AC50 [5]: 0.452 µM (active) | EC50 (Protein RecA): 0.239 µM (active)

O=C(OCc1ccc([N+](=O)[O-])cc1)c1ccc2ccccc2n1
IC50 (cells): 18 µM (active)

COc1ccccc1NC(=O)CSc1nc2c(sc3ccccc32)c(=O)n1CCN(C)C
AC50 [5]: 58.7 µM (active) | EC50 (Protein RecA): 12.9 µM (active)

Cc1ccnc(N2C(=O)C3C4CC(C(Br)C4Br)C3C2=O)c1 (stereo not given)
AC50 (Cytochrome P450 2C9): 17.8 µM (inconclusive) | AC50 (Cytochrome P450 3A4): 25.1 µM (inconclusive)

CN(Cc1cc(C(C)(C)C)cc(Br)c1O)Cc1cc(C(C)(C)C)cc(Br)c1O
AC50 (Cytochrome P450 2D6): 2.51 µM (inconclusive) | AC50 (Cytochrome P450 2C9): 3.98 µM (inconclusive)

CCCCOc1ccc(-c2nnn(C(C)C(=O)OCC)n2)cc1 (stereo not given)
IC50 (cells): 2.83 µM (active)

C/C=C1\COC(C(=O)NCCN2CCCC2)(C(F)(F)F)C=C1C=C1CCCCC1 (stereo not given)
IC50 [3]: > 20 µM (inactive)

COc1ccc(CNC(=O)N[C@@H](CC(C)C)C(=O)O)cc1OC
EC50 [1]: > 112 µM (not active) | EC50 [2]: > 112 µM (not active)

Cc1ccc(S(=O)(=O)N2CCC(C(=O)NCc3cccnc3)CC2)cc1
AC50 (Cytochrome P450 2D6): 12.6 µM (inconclusive) | AC50 (Cytochrome P450 2C9): 6.31 µM (inconclusive) | AC50 (Cytochrome P450 2C19): 17.8 µM (inconclusive)

CCOC(=O)c1c(NC(=O)COC(=O)c2ncc(Cl)c(Cl)c2Cl)sc(C(=O)N(C)C)c1C
AC50 [5]: 14.1 µM (active) | EC50 (Protein RecA): 45.5 µM (active)

COC(=O)/C=C/CSC1=N/C(=C/c2ccc(-n3cncn3)cc2)C(=O)N1
AC50 (Cytochrome P450 2C9): 11.2 µM (inconclusive)

C#CCOCCOCCOCCNc1nc(N2CCN(C(=O)[C@H]([C@@H](C)CC)n3cc([C@@H](N)CC(C)C)nn3)CC2)nc(N2CCN(C(=O)[C@H](Cc3ccc(O)cc3)n3cc([C@@H](N)C(C)CC)nn3)CC2)n1 (stereo not given in full)
IC50 [3]: > 20 µM (inactive)

CCOCCCN=C(S)Nc1ccc2nc(N3CCOCC3)cc(C)c2c1
EC50 [4]: > 260 µM (inactive)

COc1ccc(-c2cc(C(F)(F)F)nc(SCC(=O)N3CCOCC3)n2)cc1OC
EC50 [1]: > 112 µM (not active) | EC50 [2]: 15.8 µM (active)

CC1CCN(c2ccc(C=O)o2)CC1
EC50 [4]: > 260 µM (inactive)

COc1[nH]nc(C(=O)Nc2cc(F)ccc2C)c1[N+](=O)[O-]
IC50 (cells): > 50 µM (active)

C=CCn1c(S)nnc1C(C)NC(=O)c1ccccc1 (stereo not given)
AC50 (Cytochrome P450 2C9): 17.8 µM (inconclusive)

Cc1cc(C)cc(NC(=O)CN2C(=O)NC(C)(c3ccccc3)C2=O)c1 (stereo not given)
EC50 [4]: > 260 µM (inactive)

O=C(CC1Oc2ccccc2NC1=O)NC1CCCC1 (stereo not given)
EC50 [1]: > 112 µM (not active) | EC50 [2]: > 112 µM (not active)

Cn1c(SCc2cccc(C(F)(F)F)c2)nnc1-c1ccco1
EC50 [4]: > 260 µM (inactive)

COc1cc(C#Cc2c(-c3cncn3C)n(C)c3ccc(Br)cc23)cc(OC)c1
IC50 [3]: > 20 µM (inactive)

Cc1cccc(CC(C)NC(=O)c2oc3c(F)cccc3c2C)n1 (stereo not given)
EC50 [4]: > 260 µM (inactive)

CC(=O)Nc1ccc(OCC(O)Cn2cnc3ccccc32)cc1 (stereo not given)
AC50 (Cytochrome P450 2D6): 0.00562 µM (inconclusive) | AC50 (Cytochrome P450 2C9): 0.0631 µM (inconclusive)

COc1ccc(C/N=C(\C#N)C2=C(O)c3ccccc3C2=O)cc1
IC50 (cells): 45.7 µM (active)

O=C(N/N=C/c1ccccn1)c1ccc(NC(=O)c2ccc(F)cc2)cc1
EC50 [1]: > 112 µM (not active) | EC50 [2]: > 112 µM (not active)

Cc1cc(C(=O)N/N=C/c2ccc(OC(=O)c3ccccc3Br)cc2)[nH]n1
IC50 (cells): 41.6 µM (active)
